Measurements as given in ChEMBL document CHEMBL1201862, “PubChem BioAssay data set” (2004).
Calls of active or inactive are those of the source.

Key:
[1] = biological target: T1, Zinc finger protein mex-5 (Caenorhabditis elegans, UniProt Q9XUB2); assay: MEX-5/TCR-2 RNA interaction inhibitors, dose response, biochemical, C. elegans, fluorescence polarization (AID 1960)
T1 sequence (Q9XUB2 whole entry): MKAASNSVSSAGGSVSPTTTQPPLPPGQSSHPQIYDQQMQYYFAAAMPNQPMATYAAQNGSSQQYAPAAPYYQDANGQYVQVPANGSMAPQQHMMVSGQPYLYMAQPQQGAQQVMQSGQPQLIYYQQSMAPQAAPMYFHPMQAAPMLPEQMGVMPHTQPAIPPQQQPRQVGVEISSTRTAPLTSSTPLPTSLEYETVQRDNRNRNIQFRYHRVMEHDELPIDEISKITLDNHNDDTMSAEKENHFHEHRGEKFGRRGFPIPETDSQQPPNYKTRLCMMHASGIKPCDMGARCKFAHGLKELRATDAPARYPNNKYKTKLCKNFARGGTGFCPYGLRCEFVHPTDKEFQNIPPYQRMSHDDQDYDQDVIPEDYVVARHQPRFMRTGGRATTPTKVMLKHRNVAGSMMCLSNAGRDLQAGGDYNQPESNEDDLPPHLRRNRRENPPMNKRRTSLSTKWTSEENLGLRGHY

[2] = biological target: Peroxisome proliferator-activated receptor gamma/Nuclear receptor coactivator 3 (Homo sapiens, UniProt P37231); assay: (§1) TR-FRET dose response biochemical High Throughput Screening assay for agonists of the steroid receptor coactivator 3 (SRC-3) recruitment by the peroxisome proliferator-activated receptor gamma (PPAR gamma): non-selective agonists. [Related pubchem assays: 1301 (Confirmation screen.), 1048 (Primary screen.)]; type: functional
[3] = biological target: T2, Endoribonuclease toxin MazF (Escherichia coli K-12, UniProt P0AE70); assay: MazF toxin RNase activators, dose response, biochemical, fluorescence, single-stranded RNA substrate, uHTS hits (AID 588481); type: functional
T2 sequence (P0AE70 whole entry): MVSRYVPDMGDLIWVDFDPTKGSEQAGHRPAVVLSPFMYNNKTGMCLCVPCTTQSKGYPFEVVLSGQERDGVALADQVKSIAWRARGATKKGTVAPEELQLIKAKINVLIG

[4] = biological target: Peroxisome proliferator-activated receptor gamma/Nuclear receptor coactivator 1 (Homo sapiens, UniProt P37231); assay: as §1, with “1 (SRC-1)” for “3 (SRC-3)”, “assays (depositor defined):AID1300, AID1808, AID504735, AID631]” for “assays: 1301 (Confirmation screen.), 1048 (Primary screen.)]”; type: protein assay
[5] = Luminescence Cell-Based Dose Confirmation HTS to Identify Inhibitors of Platelet Dense Granule Release. [Related pubchem assays: 1663 (Primary HTS), 1678 (Summary of Project)]; type: functional
[6] = biological target: Luciferin 4-monooxygenase (Photinus pyralis, UniProt P08659); assay: firefly luciferase enzyme inhibitors, dose response, biochemical, luminescence (AID 1891)
[7] = biological target: T2, Endoribonuclease toxin MazF; assay: fluorescent RNA oligo signal without MazF, dose response, counter-screen for MazEF activator project, biochemical, fluorescence, single-stranded RNase substrate (AID 588502); type: functional
[8] = biological target: T3, RNA-binding protein pos-1 (Caenorhabditis elegans, UniProt G5EF15); assay: inhibitors of POS-1/mex-3 RNA binding, dose response, biochemical, fluorescence polarization (AID 1964);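 also: purified POS-1 fused to maltose binding protein made in E. coli; potency of compounds blocking POS-1 binding to fluorescent RNA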
T3 sequence (G5EF15 whole entry): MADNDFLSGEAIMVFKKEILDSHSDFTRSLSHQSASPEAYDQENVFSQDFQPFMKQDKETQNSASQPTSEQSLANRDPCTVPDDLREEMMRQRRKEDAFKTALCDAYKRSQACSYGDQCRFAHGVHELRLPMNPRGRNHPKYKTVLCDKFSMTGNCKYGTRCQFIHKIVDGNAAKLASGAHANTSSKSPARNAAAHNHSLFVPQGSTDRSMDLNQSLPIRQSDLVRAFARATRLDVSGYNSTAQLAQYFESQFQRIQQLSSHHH

[9] = biological target: Peroxisome proliferator-activated receptor gamma/Nuclear receptor coactivator 2 (Homo sapiens, UniProt P37231); assay: TR-FRET dose response biochemical High Throughput Screening assay for agonists of the steroid receptor coactivator 2 (SRC-2) recruitment by the peroxisome proliferator-activated receptor gamma (PPAR gamma): non-selective agonists. [Related pubchem assays: 1297, 1032 ]; type: functional
Nonstructural protein 1 = Nonstructural protein 1 (Influenza A virus, UniProt Q194T2); type: functional, Influenza A virus (A/California/07/2009(H1N1))
[10] = biological target: T4, Alkaline phosphatase, tissue-nonspecific isozyme (Homo sapiens, UniProt P05186); assay: TNAP enzyme inhibition by screening hits, dose response, selectivity assay for mouse IAP inhibitor project, biochemical, human TNAP, uHTS hits (AID 488906); type: functional
T4 sequence (P05186 whole entry): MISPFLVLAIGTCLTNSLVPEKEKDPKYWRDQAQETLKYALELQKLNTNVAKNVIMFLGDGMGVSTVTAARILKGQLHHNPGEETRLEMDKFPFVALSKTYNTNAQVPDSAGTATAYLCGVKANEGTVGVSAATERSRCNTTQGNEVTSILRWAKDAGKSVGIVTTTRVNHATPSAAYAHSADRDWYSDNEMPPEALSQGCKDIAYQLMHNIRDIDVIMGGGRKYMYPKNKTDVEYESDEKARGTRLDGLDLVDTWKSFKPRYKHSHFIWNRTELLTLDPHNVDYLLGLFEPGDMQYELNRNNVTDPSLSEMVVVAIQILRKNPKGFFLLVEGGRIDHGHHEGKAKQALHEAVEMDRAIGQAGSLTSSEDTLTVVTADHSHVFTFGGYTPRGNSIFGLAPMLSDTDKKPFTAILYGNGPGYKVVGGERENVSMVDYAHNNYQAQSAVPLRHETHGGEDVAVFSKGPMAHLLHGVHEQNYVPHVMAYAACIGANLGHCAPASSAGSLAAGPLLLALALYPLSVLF

[11] = biological target: Intestinal-type alkaline phosphatase (Mus musculus, UniProt P24822); assay: PubChem AID 488785; type: functional
[12] = biological target: Intestinal-type alkaline phosphatase (Homo sapiens, UniProt P09923); assay: inhibition of human intestinal alkaline phosphatase – biochemical, dose response (AID 488876); type: functional
[13] = biological target: Delta-type opioid receptor (Homo sapiens, UniProt P41143); assay: Counterscreen for agonists of heterodimerization of the mu 1 (OPRM1) and delta 1 (OPRD1) opioid receptors: Luminescence-based cell-based high throughput dose response assay to identify agonists of OPRD1 homodimerization. [Related pubchem assays (depositor defined):AID504326, AID504355, AID504692, AID504904, AID504905]; type: functional
[14] = biological target: 5-hydroxytryptamine receptor 5A (Homo sapiens, UniProt P47898); assay: Counterscreen for agonists of OPRM1-OPRD1 heterodimerization: luminescence-based cell-based high throughput dose response assay to identify agonists of 5-hydroxytryptamine (serotonin) 5A receptor (HTR5A). [Related pubchem assays (depositor defined):AID504326, AID504355, AID504692, AID504904, AID504905]; type: functional
Mu-type opioid receptor = Mu-type opioid receptor (Homo sapiens, UniProt P35372); assay: Counterscreen for agonists of heterodimerization of the mu 1 (OPRM1) and delta 1 (OPRD1) opioid receptors: Luminescence-based cell-based high throughput dose response assay to identify agonists of OPRM1 homodimerization.; type: functional;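 also: U2OS cells expressing OPRM1 and beta-arrestin as split beta-galactosidase partners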
Chain of Mu-type opioid receptor (P35372 whole entry): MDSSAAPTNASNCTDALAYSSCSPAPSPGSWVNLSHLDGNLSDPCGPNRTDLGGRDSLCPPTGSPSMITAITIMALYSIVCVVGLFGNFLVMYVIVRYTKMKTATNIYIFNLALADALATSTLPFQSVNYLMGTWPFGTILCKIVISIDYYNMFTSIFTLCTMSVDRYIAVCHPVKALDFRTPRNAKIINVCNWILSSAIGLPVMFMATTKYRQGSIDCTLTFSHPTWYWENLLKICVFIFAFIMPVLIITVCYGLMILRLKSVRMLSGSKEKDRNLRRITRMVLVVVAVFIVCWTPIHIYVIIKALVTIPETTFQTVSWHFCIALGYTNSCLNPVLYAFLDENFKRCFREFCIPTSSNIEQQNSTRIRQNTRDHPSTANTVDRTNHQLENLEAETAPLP

Chain of 5-hydroxytryptamine receptor 5A (P47898 whole entry): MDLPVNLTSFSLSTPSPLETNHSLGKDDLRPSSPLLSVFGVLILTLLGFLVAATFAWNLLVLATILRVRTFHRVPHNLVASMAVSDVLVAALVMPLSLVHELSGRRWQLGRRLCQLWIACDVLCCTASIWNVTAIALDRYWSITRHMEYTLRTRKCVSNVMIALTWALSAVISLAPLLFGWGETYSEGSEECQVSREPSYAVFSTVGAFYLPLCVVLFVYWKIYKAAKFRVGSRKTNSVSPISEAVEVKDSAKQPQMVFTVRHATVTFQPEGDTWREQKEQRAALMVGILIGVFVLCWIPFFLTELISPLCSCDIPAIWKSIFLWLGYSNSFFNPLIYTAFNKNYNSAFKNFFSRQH
Chain of Delta-type opioid receptor (P41143 whole entry): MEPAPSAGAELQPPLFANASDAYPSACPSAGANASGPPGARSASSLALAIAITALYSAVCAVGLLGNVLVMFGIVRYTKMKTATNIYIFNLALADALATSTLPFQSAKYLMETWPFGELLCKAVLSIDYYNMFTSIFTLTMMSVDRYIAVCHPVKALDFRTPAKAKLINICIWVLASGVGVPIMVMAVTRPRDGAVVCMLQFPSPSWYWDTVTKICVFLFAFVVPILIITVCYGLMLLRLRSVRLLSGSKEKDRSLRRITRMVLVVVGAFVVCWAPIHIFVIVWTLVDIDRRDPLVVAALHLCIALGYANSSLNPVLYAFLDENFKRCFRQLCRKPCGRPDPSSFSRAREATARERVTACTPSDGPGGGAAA
Chain of Luciferin 4-monooxygenase (P08659 whole entry): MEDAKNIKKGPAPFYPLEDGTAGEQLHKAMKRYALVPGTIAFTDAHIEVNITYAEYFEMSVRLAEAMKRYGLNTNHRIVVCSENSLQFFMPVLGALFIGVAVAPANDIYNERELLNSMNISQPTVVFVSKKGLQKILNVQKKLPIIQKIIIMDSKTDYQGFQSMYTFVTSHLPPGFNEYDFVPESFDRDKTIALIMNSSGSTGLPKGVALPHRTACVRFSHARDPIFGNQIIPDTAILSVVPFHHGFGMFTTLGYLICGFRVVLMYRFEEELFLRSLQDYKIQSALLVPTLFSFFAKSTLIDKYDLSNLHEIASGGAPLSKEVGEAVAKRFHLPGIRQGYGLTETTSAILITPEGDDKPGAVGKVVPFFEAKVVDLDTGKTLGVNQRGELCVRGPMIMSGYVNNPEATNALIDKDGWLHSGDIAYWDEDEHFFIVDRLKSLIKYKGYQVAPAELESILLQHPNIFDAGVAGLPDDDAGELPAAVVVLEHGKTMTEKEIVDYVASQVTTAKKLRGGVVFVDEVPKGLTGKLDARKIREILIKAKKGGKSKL
Chain of Intestinal-type alkaline phosphatase (Mus musculus, UniProt P24822) (P24822 whole entry): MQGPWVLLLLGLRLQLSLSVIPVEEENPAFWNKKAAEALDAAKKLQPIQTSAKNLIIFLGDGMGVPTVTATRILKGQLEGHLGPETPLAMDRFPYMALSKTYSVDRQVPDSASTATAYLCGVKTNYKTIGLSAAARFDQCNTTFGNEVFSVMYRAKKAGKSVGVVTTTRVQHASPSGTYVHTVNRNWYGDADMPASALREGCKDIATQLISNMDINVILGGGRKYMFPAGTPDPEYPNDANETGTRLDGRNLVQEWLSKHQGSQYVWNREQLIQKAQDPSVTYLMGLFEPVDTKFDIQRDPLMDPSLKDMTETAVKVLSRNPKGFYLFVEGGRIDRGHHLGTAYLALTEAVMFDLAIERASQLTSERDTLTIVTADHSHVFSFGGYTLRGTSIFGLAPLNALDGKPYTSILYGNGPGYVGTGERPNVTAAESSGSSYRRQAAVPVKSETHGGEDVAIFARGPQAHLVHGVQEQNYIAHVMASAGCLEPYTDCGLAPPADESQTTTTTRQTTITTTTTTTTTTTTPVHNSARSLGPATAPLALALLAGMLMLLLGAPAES
Chain of Nonstructural protein 1 (Q194T2 whole entry): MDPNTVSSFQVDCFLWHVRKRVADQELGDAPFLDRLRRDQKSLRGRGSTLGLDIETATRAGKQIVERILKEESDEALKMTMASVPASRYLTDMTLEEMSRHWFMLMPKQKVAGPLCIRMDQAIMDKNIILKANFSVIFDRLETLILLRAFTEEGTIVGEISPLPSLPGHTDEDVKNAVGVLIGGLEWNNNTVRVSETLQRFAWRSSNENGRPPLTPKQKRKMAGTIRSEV
Chain of Peroxisome proliferator-activated receptor gamma/Nuclear receptor coactivator 3 (P37231 whole entry): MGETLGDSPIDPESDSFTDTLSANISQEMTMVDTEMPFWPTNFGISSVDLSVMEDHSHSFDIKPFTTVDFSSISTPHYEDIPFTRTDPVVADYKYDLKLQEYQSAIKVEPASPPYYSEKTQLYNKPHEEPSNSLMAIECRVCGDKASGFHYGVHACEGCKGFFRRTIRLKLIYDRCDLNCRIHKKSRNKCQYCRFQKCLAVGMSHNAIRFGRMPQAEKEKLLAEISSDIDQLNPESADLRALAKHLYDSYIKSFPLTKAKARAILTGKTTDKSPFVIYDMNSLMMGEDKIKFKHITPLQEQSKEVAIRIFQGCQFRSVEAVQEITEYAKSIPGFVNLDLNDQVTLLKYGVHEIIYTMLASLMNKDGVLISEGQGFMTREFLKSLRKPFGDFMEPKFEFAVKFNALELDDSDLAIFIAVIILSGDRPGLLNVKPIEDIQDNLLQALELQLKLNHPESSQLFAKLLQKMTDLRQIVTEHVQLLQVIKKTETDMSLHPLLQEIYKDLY
Chain of Peroxisome proliferator-activated receptor gamma/Nuclear receptor coactivator 3 (Q9Y6Q9 whole entry, further chain): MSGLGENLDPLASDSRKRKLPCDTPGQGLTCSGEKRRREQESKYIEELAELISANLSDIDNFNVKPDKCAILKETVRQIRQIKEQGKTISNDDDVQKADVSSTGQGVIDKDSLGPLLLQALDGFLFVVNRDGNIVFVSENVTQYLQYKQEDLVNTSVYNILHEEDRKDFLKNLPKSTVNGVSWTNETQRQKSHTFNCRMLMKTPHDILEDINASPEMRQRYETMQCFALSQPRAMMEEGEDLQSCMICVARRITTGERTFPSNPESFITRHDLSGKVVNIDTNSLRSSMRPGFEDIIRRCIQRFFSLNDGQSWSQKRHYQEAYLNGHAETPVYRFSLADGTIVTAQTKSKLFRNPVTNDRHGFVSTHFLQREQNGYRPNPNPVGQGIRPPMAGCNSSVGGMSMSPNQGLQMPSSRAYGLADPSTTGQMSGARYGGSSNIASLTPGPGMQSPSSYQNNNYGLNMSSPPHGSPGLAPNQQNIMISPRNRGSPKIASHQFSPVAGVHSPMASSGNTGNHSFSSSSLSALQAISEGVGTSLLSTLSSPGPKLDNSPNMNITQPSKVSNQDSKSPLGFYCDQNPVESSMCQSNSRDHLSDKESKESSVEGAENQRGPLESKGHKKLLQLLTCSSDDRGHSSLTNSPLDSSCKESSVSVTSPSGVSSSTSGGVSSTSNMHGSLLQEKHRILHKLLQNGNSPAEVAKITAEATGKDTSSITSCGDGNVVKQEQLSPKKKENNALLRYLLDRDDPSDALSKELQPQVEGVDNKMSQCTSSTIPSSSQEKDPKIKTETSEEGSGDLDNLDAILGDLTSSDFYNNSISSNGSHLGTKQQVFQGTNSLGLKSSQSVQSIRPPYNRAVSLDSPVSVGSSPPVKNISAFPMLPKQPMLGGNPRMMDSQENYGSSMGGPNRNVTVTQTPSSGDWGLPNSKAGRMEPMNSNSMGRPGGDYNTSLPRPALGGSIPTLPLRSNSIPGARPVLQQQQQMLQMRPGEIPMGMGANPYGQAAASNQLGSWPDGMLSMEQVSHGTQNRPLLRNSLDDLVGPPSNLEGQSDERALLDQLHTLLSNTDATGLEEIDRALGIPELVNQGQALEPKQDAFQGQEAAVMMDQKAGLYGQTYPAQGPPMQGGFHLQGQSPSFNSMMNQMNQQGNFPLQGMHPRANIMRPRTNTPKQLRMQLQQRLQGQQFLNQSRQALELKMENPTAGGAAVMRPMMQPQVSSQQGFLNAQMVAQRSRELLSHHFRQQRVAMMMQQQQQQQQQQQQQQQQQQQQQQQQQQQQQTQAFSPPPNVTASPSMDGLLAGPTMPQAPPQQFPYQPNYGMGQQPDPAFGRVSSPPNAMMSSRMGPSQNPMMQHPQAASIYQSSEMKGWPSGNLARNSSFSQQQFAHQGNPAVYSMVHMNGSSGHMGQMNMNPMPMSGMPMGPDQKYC
Chain of Intestinal-type alkaline phosphatase (Homo sapiens, UniProt P09923) (P09923 whole entry): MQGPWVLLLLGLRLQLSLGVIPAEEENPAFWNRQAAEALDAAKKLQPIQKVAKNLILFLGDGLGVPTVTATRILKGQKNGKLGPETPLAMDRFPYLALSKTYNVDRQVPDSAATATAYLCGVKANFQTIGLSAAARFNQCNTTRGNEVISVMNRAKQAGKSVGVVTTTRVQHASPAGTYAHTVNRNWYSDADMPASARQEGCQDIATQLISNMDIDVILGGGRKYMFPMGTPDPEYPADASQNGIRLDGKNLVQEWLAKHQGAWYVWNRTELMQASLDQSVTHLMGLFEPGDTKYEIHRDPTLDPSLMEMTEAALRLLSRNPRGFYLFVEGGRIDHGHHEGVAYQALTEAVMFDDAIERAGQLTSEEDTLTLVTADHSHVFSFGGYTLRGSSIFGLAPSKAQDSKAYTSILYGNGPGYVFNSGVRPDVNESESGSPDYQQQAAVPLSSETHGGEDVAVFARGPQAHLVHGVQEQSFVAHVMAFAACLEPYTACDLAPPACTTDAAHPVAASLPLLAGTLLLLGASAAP

With `Cc1nnc(N2C(=O)C(O)=C(C(=O)c3ccco3)C2c2ccc(C(C)(C)C)cc2)s1` (centres undefined) the EC50 [1] was 7.86 µM (active), the EC50 [2] was > 79.4 µM (not active) and the EC50 [3] was > 99 µM (inactive). The EC50 [4] was > 2.94 µM (inactive), the EC50 [5] was > 112 µM (not active) and the EC50 [6] was > 112 µM (not active). For the same molecule, the EC50 [7] was 19.7 µM (active), the EC50 [8] was 24.9 µM (active) and the EC50 [9] was 28.3 µM (not active).

In the case of `Cc1cc(C)cc(NC(=S)NC2CC3CCCC(C2)N3Cc2cccs2)c1` (centres undefined), the IC50 (Nonstructural protein 1) is reported as > 100 µM (active), the IC50 [10] is reported as 12.9 µM (active) and the IC50 [11] is reported as 2.17 µM (active). The IC50 [12] was 4.06 µM (active).

In the case of `COc1ccc(C2C(C#N)=C(N)N(c3sc4c(c3C#N)CCCC4)C3=C2C(=O)CC(C)(C)C3)cc1` (centres undefined), the EC50 [13] is reported as 11.6 µM (inactive), the EC50 [14] is reported as > 92.5 µM (inactive) and the EC50 (Mu-type opioid receptor) is reported as > 92.5 µM (inactive).

In the case of `CC(CC(=O)N(CCC1=CCCCC1)c1c(N)n(Cc2ccccc2)c(=O)[nH]c1=O)c1ccccc1` (centres undefined), the EC50 [13] is reported as > 92.5 µM (inactive), the EC50 [14] is reported as > 92.5 µM (inactive) and the EC50 (Mu-type opioid receptor) is reported as > 92.5 µM (inactive).
